Assay results published in patent US8252748B2, “Peptide derived from neurotensin receptor 3 and use thereof in the treatment of psychiatric diseases” (Centre National de la Recherche Scientifique—CNRS, priority 2007, dated 2012).
No end group written: not given here.

Tests used:
C57BL6/J mice [1] = assay: Kainate-induced epileptic seizures; format: in vivo, mouse; details: IP 100 μl at 10^−5 M; kainate 30 mg/kg IP; 90 minutes after kainate; 10 mice per group (5 in saline group)
Description: In this experiment, the mice used were C57BL6/J, […], which received an intraperitoneal injection of 100 μl of physiological saline solution and a “PE 10^−5 M” group, in which the mice received an intraperitoneal injection of 100 μl of a solution containing the peptide of the invention at a concentration of 10^−5M. In each of the experimental groups, epileptic seizures were induced by intraperitoneal injection of 100 μl of kainate at a rate of 30 mg/kg. Observation of the stage of epileptic seizure was carried out 90 minutes after injection of kainate. This was based on observation of the behavior of the mice.
The different stages of epileptic seizure are presented in the document of Tsirka S. E., Gualandris, A., Amaral, D. G., Strickland, S. “Excitotoxin-induced neuronal degeneration and seizure are mediated by tissue plasminogen activator”, Nature, 377: 340-344 (1995) (26).
6 stages are defined for describing the intensity of an epileptic attack: • Stage 1: immobility • Stage 2: movements of the head and of the nape • Stage 3: unilateral clonic activity • Stage 4: bilateral clonic activity • Stage 5: generalized convulsions • Stage 6: death of the animal
Statistical analysis was performed by a two-factor ANOVA test followed by the post-hoc test.

C57BL6/J mice [2] = assay: Hot plate test of sensitivity to pain; format: in vivo, mouse; details: IV 100 μl at 10^−6 M, 30 minutes after injection
Description: Sensitivity to pain was measured with two tests: the hot plate test and the “tail flick” test.
This test consists of measuring the time that a mouse licks its hind paws when it is put on a plate maintained at a given temperature. Two temperatures were used: 50 and 56° C.
The mice used were C57BL6/J mice. Each group was constituted of 10 mice.
The sensitivity to heat was then measured on the three groups of mice and the results obtained were compared.
The measurements were taken 30 minutes after injection.
The statistical difference was measured using the one-factor ANOVA test followed by the post-hoc test.

TREK-1 channel = target: T1, TREK-1 channel (Homo sapiens, UniProt O95069); assay: Whole-cell patch clamp of TREK-1 channel activity in transfected COS-7 cells; format: cell-based
T1 construct: expressed in transfected cells; host or cells: COS-7 cells (ATCC CRL-1651), DEAE-dextran transfection
T1 sequence (O95069 1-426): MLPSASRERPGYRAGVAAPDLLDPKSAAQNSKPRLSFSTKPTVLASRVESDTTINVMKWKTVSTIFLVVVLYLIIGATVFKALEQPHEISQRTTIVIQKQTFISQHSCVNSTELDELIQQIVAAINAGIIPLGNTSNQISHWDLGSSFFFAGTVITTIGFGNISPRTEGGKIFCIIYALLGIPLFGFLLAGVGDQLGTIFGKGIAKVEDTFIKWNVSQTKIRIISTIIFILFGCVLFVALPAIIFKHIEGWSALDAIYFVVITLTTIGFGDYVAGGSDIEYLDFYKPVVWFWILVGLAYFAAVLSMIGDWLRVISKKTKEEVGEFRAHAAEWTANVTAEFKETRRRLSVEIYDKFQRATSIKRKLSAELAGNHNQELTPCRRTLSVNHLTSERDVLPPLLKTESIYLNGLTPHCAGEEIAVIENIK
Description: All the experiments for measuring the effect of the propeptide were conducted on COS-7 cells (cell line derived from kidney fibroblasts of African green monkey Cercopithecus aethiops). These cells are sown at a density of 20 000 cells/dish with diameter of 35 mm, 24 hours before being transfected by the DEAE-dextran method with 1 μg of pIRES-EGFP-TREK-1 plasmid. Measurements of current were taken 48 to 72 hours after transfection.
Culture of the COS-7 cells. The COS-7 cells (ATCC reference: CRL-1651) are cultivated in DMEM medium (Gibco)/10% fetal calf serum (FCS, ICN), at 37° C. in the presence of 5% CO2.
Transfection using DEAE dextran. On day 1, the COS-7 cells are sown at 20 000 cells per 35-mm diameter dish containing 2 ml of culture medium. On day 2, the medium is removed and the cells are covered with 200 μl of PBS (Gibco) containing 1 μg of pIRES-EGFP-TREK-1 plasmid and 100 μg of DEAE-dextran (Sigma) then placed at 37° C./5% CO2. After incubation for 30 minutes, 2 ml of medium DMEM/10% NuSerum/80 μM chloroquin is added. After 3 hours, the medium is replaced with 2 ml of DMEM/10% FCS and the cells are incubated for 48 to 72 hours before being measured by electrophysiological methods.
Electrophysiological measurements: all the measurements are taken at room temperature, i.e. at 21-22° C. The cells that were transfected by the plasmid are detected from the fluorescence emitted by the EGFP after excitation at 480 nm.
The whole-cell patch clamp technique was used for measuring the activity of the TREK-1 channels. The equipment used is the RK 400 patch-clamp amplifier (Axon Instruments, U.S.A.). The patch pipettes with resistance of 1.3 to 8 MΩ are prepared from capillaries of borosilicate glass and are filled with a solution of 155 mM KCl, 3 mM MgCl2, 5 mM EGTA, 10 mM HEPES/KOH pH 7.2.
The cell culture medium is replaced with a solution of 150 mM NaCl, 5 mM KCl, 3 mM MgCl2, 1 mM CaCl2, 10 HEPES/NaOH pH 7.4 containing 10 mM tetraethyl ammonium chloride, 3 mM of 4-aminopyridin. The cells are perfused continuously with this solution. The rest potential of the membrane of the measured cell is fixed at −80 mV.
The variations in voltage are obtained either with a continuous ramp (from −100 to +50 mV) or by potential jumps of 10 mV (from −100 to +40 mV, 1.5 second per jump).
The data obtained were analyzed with the Pclamp software. The currents described in the appended FIG. 2B were obtained at 0 mV, the results expressed are the mean values±standard deviation. The IC50 value was obtained by plotting the experimental data with a sigmoidal function.
The activity of the channel is then measured by the patch-clamp technique in whole-cell configuration as described above.

APLPRWSGPIGVSWGLR [propeptide, APLPRWSGPIGVSWGLR]
number of animals that reached stage 5 (generalized convulsions) (C57BL6/J mice [1]): 2 animals
reaction time on hot plate (C57BL6/J mice [2]; 50° C.): 21.1 ± 1.5 s
reaction time on hot plate (C57BL6/J mice [2]; 56° C.): 4.6 ± 0.9 s
current density at 0 mV (TREK-1 channel; 10 μM arachidonic acid plus 100 μM of propeptide (130 pA/pF without propeptide)): 56 pA/pF
inhibition at 100 µM (TREK-1 channel; COS-7, read-out: inhibition of channel activity measured at 0 mV): 25%
IC50 (TREK-1 channel; activated by 10 μM arachidonic acid, measured at 0 mV, read-out: half-effect concentration (IC50) of inhibition of TREK-1 channel activity): 70.7 nM
current density at 0 mV (TREK-1 channel; baseline conditions, 100 μM of propeptide (control 31 pA/pF)): 23 pA/pF
activation of TREK-1 by arachidonic acid (TREK-1 channel; electrophysiology, FIG. 2): blocked
